Columns and labels:
Test in all cases: Kinase inhibitor library screening, PrestoBlue cell viability, 1 or 10 μM, 72 h
[1] = test system: A375 cells (parental); settings: A375 Parental, 72 h
[2] = test system: IGR37-GP cells (Dabrafenib-resistant); settings: IGR37 GP, 72 h
[3] = test system: A375-XP cells (Vemurafenib-resistant); settings: A375 XP, 72 h
[4] = test system: 501Mel-XP cells (Vemurafenib-resistant); settings: 501Mel XP, 72 h
[5] = test system: 501Mel-GP cells (Dabrafenib-resistant); settings: 501Mel GP, 72 h
[6] = test system: A375-GP cells (Dabrafenib-resistant); settings: A375 GP, 72 h
[7] = test system: 501Mel cells (parental); settings: 501Mel Parental, 72 h
In short: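 Normalised to untreated controls, viability percentages came from PrestoBlue measured on a microplate reader following 72 h incubation with drug. Each line was assayed at least twice.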

[8] = test system: IGR37 cells (parental); settings: IGR37 Parental, 72 h
[9] = test system: IGR37-XP cells (Vemurafenib-resistant); settings: IGR37 XP, 72 h

SMILES: CNC(=O)c1cc(Oc2ccc(NC(=O)Nc3cc(C(C)(C)C)nn3-c3ccc4ncccc4c3)c(F)c2)ccn1 [DCC-2036 (Rebastinib)]
- cell viability (kinase inhibitor library screening) ([1]; 10μΜ): 1.8%
- cell viability (kinase inhibitor library screening) ([1]; 1μΜ): 55.4%
- cell viability (kinase inhibitor library screening) ([2]; 10μΜ): 8.3%
- cell viability (kinase inhibitor library screening) ([3]; 1μΜ): 76.3%
- cell viability (kinase inhibitor library screening) ([3]; 10μΜ): 2.5%
- cell viability (kinase inhibitor library screening) ([4]; 1μΜ): 102.9%
- cell viability (kinase inhibitor library screening) ([4]; 10μΜ): 0.261%
- cell viability (kinase inhibitor library screening) ([5]; 1μΜ): 100.3%
- cell viability (kinase inhibitor library screening) ([5]; 10μΜ): 2.0%
- cell viability (kinase inhibitor library screening) ([6]; 1μΜ): 96.7%
- cell viability (kinase inhibitor library screening) ([6]; 10μΜ): 3.6%
- cell viability (kinase inhibitor library screening) ([7]; 1μΜ): 81.5%
- cell viability (kinase inhibitor library screening) ([7]; 10μΜ): 2.8%
- cell viability (kinase inhibitor library screening) ([8]; 1μΜ): 67.0%
- cell viability (kinase inhibitor library screening) ([8]; 10μΜ): 20.7%
- cell viability (kinase inhibitor library screening) ([9]; 1μΜ): 107.3%
- cell viability (kinase inhibitor library screening) ([9]; 10μΜ): 2.4%

SMILES: CC(C)(C)c1nc(-c2cccc(NS(=O)(=O)c3c(F)cccc3F)c2F)c(-c2ccnc(N)n2)s1 [Dabrafenib (GSK2118436)]
- Cell viability in kinase inhibitor library screening, A375 Parental, 10μΜ ([1]; 10μΜ): 26.9
- Cell viability in kinase inhibitor library screening, A375 Parental, 1μΜ ([1]; 1μΜ): 17.6
- Cell viability in kinase inhibitor library screening, IGR37 GP, 10μΜ ([2]; 10μΜ): 97.8%
- Cell viability in kinase inhibitor library screening, IGR37 GP, 1μΜ ([2]; 1μΜ, in %): 94.6
- Cell viability in kinase inhibitor library screening, A375 XP, 1μΜ ([3]; 1μΜ): 73.0
- Cell viability in kinase inhibitor library screening, A375 XP, 10μΜ ([3]; 10μΜ): 48.7
- Cell viability in kinase inhibitor library screening, 501Mel XP, 1μΜ ([4]; 1μΜ, in %): 79.2
- Cell viability in kinase inhibitor library screening, 501Mel XP, 10μΜ ([4]; 10μΜ, in %): 97.5
- Cell viability in kinase inhibitor library screening, 501Mel GP, 1μΜ ([5]; 1μΜ, in %): 96.2
- Cell viability in kinase inhibitor library screening, 501Mel GP, 10μΜ ([5]; 10μΜ, in %): 92.9
- Cell viability in kinase inhibitor library screening, A375 GP, 1μΜ ([6]; 1μΜ): 65.8
- Cell viability in kinase inhibitor library screening, A375 GP, 10μΜ ([6]; 10μΜ): 52.9
- Cell viability in kinase inhibitor library screening, 501Mel Parental, 1μΜ ([7]; 1μΜ, in %): 51.2
- Cell viability in kinase inhibitor library screening, 501Mel Parental, 10μΜ ([7]; 10μΜ, in %): 72.8
- Cell viability in kinase inhibitor library screening, IGR37 Parental, 1μΜ ([8]; 1μΜ, in %): 34.2
- Cell viability in kinase inhibitor library screening, IGR37 Parental, 10μΜ ([8]; 10μΜ, in %): 44.5
- Cell viability in kinase inhibitor library screening, IGR37 XP, 10μΜ ([9]; 10μΜ): 78.9%
- Cell viability in kinase inhibitor library screening, IGR37 XP, 1μΜ ([9]; 1μΜ, in %): 93.2

SMILES: COc1cc2ncnc(Nc3ccc(F)c(Cl)c3)c2cc1NC(=O)/C=C/CN1CCCCC1 [Dacomitinib (PF299804,PF-00299804)]
- cell viability, A375 Parental, 1μΜ ([1]; 1μΜ, in %): 94.4
- cell viability, A375 Parental, 10μΜ ([1]; 10μΜ, in %): 3.4
- cell viability, IGR37 GP, 10μΜ ([2]; 10μΜ): 2.6%
- cell viability, A375 XP, 1μΜ ([3]; 1μΜ, in %): 96.8
- cell viability, A375 XP, 10μΜ ([3]; 10μΜ, in %): 1.1
- cell viability, 501Mel XP, 10μΜ ([4]; 10μΜ, in %): -0.2
- cell viability, 501Mel GP, 1μΜ ([5]; 1μΜ, in %): 106.7
- cell viability, 501Mel GP, 10μΜ ([5]; 10μΜ, in %): -0.4
- cell viability, A375 GP, 1μΜ ([6]; 1μΜ, in %): 97.2
- cell viability, A375 GP, 10μΜ ([6]; 10μΜ, in %): 1.9
- cell viability, 501Mel Parental, 10μΜ ([7]; 10μΜ, in %): 0.5
- cell viability, IGR37 Parental, 10μΜ ([8]; 10μΜ, in %): 1.1
- cell viability, IGR37 XP, 10μΜ ([9]; 10μΜ): 1.3%
- cell viability, IGR37 XP, 1μΜ ([9]; 1μΜ, in %): 80.1

SMILES: CO[C@@H](C(=O)N1Cc2n[nH]c(NC(=O)c3ccc(N4CCN(C)CC4)cc3)c2C1)c1ccccc1 [Danusertib (PHA-739358)]
- cell viability (kinase inhibitor library screening) ([1]; 10μΜ): 28.0%
- cell viability (kinase inhibitor library screening) ([1]; 1μΜ): 51.2%
- cell viability (kinase inhibitor library screening) ([2]; 10μΜ): 66.0%
- cell viability (kinase inhibitor library screening) ([3]; 1μΜ): 53.8%
- cell viability (kinase inhibitor library screening) ([3]; 10μΜ): 35.5%
- cell viability (kinase inhibitor library screening) ([4]; 1μΜ): 84.5%
- cell viability (kinase inhibitor library screening) ([4]; 10μΜ): 58.4%
- cell viability (kinase inhibitor library screening) ([5]; 1μΜ): 94.8%
- cell viability (kinase inhibitor library screening) ([5]; 10μΜ): 72.3%
- cell viability (kinase inhibitor library screening) ([6]; 1μΜ): 48.5%
- cell viability (kinase inhibitor library screening) ([6]; 10μΜ): 27.8%
- cell viability (kinase inhibitor library screening) ([7]; 1μΜ): 94.3%
- cell viability (kinase inhibitor library screening) ([7]; 10μΜ): 80.7%
- cell viability (kinase inhibitor library screening) ([8]; 10μΜ): 59.2%
- cell viability (kinase inhibitor library screening) ([9]; 10μΜ): 21.3%

— PMC6364417, “Kinase inhibitor library screening identifies synergistic drug combinations effective in sensitive and resistant melanoma cells” (Journal of Experimental & Clinical Cancer Research : CR, 2019)
